Values joined by “and” are separate entries in the source; they are usually repeats but may differ in a detail not shown here. Equal entries are not always repeated.
Molecular target: T1, Aldo-keto reductase family 1 member C3 (Homo sapiens, UniProt P42330)
T1 sequence (P42330 whole entry): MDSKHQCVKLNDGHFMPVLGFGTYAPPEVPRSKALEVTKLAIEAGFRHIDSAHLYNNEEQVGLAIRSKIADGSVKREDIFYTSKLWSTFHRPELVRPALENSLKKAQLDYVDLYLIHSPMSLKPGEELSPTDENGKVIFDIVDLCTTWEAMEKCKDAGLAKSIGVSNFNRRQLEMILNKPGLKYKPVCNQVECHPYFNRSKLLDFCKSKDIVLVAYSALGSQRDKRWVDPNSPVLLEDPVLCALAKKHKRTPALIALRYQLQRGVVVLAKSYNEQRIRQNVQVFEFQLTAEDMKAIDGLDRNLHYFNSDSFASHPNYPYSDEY
Test: Inhibitory Activity Assay: Essentially, the enzyme activity is measured by quantification of the Coumberol from Coumberone (Halim, M., Yee, D. J., and Sames, D., J. AM. CHEM. SOC. 130, 14123-14128 (2008) and Yee, D. J., Balsanek, V., Bauman, D. R., Penning, T. M., and Sames, D., Proc. Natl. Acad. Sci. USA 103, 13304-13309 (2006)). In this test, the increase of the highly fluorescent Coumberol by NADPH⿿(nicotinamide adenine dinucleotide phosphate)-dependent reduction of the non-fluorescent Coumberone by AKR1C3 can be determined.The enzyme used was recombinant human AKR1C3 (Aldo-keto reductase family 1 member C3) (GenBank Accession No. NM_003739). This was expressed in E. coli as GST (glutathione S transferase) fusion protein and purified by glutathione Sepharose affinity chromatography. The GST was removed by digestion with thrombin and subsequent size exclusion chromatography (Dufort, I., Rheault, P., Huang, X F., Soucy, P., and Luu-The, V., Endocrinology 140, 568-574 (1999)). […]

C[C@]12CC[C@@H]3c4ccc(C(=O)NCC5(C(=O)O)CC5)cc4CC[C@H]3[C@@H]1CC=C2c1cncc(F)c1
IC50: 9.2 nM and 10.2 nM

From ChEMBL document CHEMBL3887007, “Estra-1,3,5(10),16-tetraene-3-carboxamide derivatives, processes for their preparation, pharmaceutical preparations comprising them and their use for preparing medicaments” (2016)
